Measurements reported in patent US11021467B2, “Phosphatidylinositol 3-kinase inhibitors” (Gilead Sciences, Inc., priority 2014, dated 2021).

What was measured:
Test in all cases: TR-FRET enzymatic activity assay against PI3K isoforms
Format in all cases: biochemical
[1] = target: PI3Kβ (Homo sapiens (Human), UniProt P42338); conditions: PI3Kβ, TR-FRET, 2×Km ATP, 30 minutes at 25° C.
Source text: (§1) The compounds of formula (I) were characterized for their enzymatic activity against the PI3K isoforms. […] TR-FRET monitored the formation of 3,4,5-inositol triphosphate molecule that competed with fluorescently labeled PIP3 for binding to the GRP-1 pleckstrin homology domain protein.

[2] = target: PI3Kγ (Homo sapiens (Human), UniProt P48736); conditions: 2×Km ATP, 30 minutes at 25° C.
Source text: as §1

[3] = target: PI3Kδ (Homo sapiens (Human), UniProt O00329); conditions: 2×Km ATP, 30 minutes at 25° C.
Source text: as §1

Chain of PI3Kγ (P48736 whole entry): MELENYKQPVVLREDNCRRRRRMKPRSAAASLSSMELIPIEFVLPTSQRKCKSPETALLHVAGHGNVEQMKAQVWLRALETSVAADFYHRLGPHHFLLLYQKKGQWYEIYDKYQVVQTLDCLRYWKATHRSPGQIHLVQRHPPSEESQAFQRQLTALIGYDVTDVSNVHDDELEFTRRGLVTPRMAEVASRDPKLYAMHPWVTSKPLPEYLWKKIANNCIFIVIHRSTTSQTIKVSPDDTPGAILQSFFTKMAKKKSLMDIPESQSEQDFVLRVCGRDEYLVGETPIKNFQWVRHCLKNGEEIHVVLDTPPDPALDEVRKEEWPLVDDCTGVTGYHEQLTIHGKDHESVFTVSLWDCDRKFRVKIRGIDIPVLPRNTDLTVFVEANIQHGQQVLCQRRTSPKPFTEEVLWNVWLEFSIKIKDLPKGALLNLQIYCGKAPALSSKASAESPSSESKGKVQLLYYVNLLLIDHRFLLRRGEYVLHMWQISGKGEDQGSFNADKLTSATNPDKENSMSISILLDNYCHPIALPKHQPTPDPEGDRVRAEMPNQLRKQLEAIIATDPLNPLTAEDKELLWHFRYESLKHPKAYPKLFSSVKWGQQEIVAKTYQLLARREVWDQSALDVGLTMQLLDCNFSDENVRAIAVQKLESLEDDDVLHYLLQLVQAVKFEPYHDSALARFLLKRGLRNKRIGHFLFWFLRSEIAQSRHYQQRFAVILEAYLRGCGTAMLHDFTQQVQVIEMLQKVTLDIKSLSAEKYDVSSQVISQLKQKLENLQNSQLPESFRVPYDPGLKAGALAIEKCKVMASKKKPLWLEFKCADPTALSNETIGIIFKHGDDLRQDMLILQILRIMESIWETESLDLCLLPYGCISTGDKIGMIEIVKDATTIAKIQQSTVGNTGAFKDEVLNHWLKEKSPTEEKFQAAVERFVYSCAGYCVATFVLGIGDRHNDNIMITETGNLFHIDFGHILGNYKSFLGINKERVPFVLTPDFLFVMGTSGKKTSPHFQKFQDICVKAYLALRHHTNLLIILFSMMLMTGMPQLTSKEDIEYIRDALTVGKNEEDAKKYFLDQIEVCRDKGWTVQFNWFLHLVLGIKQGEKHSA
Chain of PI3Kβ (P42338 whole entry, the tested form may be a part, canonical isoform): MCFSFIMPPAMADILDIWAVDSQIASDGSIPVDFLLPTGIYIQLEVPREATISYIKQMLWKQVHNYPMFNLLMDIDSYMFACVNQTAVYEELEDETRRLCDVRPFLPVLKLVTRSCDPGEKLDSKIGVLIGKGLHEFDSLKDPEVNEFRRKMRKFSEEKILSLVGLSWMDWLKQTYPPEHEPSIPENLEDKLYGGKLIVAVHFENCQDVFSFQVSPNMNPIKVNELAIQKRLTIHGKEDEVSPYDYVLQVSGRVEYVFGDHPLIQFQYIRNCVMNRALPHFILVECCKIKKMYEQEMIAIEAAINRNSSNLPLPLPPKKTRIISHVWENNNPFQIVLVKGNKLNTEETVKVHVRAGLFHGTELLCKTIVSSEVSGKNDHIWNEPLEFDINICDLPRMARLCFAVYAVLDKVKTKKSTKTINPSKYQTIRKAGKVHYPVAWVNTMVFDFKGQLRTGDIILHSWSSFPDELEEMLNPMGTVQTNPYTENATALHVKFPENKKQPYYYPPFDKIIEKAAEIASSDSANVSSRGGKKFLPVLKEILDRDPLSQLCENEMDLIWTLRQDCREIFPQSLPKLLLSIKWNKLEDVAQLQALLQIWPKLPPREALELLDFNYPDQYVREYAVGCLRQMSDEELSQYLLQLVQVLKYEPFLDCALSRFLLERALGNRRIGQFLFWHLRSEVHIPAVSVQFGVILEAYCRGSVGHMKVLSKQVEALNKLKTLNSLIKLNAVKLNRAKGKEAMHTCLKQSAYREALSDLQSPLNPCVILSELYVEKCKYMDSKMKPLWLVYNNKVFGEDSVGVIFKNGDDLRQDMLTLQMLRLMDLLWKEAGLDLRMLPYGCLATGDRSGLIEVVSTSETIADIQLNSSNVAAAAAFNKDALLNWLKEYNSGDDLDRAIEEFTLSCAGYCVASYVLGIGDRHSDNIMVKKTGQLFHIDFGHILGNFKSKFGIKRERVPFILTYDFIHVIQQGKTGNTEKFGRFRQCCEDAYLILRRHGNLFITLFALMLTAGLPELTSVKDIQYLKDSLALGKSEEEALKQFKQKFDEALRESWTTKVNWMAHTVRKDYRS
Chain of PI3Kβ (P27986 whole entry partner, the tested form may be a part, canonical isoform): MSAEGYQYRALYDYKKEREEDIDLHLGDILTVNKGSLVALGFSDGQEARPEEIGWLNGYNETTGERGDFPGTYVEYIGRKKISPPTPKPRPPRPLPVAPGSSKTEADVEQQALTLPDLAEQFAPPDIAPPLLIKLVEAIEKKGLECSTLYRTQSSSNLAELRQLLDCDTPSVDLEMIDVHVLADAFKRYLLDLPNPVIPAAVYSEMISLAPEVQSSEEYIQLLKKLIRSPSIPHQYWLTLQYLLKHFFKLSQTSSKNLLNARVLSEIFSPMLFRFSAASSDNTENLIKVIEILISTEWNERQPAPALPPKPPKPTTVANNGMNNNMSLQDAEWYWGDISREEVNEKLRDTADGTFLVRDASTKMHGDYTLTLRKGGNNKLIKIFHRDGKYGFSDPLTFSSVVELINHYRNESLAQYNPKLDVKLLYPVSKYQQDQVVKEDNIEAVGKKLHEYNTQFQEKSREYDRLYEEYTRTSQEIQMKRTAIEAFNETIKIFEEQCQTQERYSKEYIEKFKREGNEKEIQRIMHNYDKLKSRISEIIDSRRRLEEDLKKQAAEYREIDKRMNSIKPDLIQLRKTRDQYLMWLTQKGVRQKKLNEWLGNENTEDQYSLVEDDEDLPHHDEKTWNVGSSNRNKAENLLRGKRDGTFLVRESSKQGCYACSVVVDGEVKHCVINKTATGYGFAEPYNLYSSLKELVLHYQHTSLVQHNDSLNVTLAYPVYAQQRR
Chain of PI3Kδ (O00329 whole entry): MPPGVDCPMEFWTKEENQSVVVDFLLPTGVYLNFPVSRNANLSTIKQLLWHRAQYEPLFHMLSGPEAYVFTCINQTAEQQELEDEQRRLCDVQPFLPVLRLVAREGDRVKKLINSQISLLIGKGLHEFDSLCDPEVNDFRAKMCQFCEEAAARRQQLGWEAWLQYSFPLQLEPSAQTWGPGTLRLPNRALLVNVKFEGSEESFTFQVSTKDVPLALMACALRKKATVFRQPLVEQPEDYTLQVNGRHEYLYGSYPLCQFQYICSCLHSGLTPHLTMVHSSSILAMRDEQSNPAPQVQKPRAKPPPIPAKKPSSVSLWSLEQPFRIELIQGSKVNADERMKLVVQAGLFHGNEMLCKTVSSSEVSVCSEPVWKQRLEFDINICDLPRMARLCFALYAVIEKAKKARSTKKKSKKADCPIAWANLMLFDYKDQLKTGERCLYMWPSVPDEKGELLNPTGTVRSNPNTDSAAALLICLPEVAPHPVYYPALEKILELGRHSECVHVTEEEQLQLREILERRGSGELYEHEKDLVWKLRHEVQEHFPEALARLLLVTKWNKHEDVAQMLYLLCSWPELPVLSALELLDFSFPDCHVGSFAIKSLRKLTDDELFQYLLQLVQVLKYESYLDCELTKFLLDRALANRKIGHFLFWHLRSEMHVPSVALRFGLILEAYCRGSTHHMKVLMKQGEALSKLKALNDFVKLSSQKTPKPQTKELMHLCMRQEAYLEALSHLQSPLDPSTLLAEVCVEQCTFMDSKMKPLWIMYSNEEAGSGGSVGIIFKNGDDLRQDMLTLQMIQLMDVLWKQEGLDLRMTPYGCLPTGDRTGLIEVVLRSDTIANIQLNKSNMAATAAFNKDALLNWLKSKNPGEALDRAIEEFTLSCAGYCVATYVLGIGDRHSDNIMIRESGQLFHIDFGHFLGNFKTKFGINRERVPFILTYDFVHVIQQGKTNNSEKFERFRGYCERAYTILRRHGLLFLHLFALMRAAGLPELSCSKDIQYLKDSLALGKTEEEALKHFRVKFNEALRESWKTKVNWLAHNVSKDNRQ
Chain of PI3Kδ (P27986 whole entry partner): as the sequence (P27986 whole entry partner, the tested form may be a part, canonical isoform) above

IC50 [1] | IC50 [2] | IC50 [3] | SMILES
550 nM | ≥ 10000 nM | 4 nM | C[C@H](Nc1ncnc(N)c1C#N)c1nc2cccc(Cl)c2c(=O)n1CCCN1CCCCC1 [Compound 134, (S)-4-amino-6-((1-(5-chloro-4-oxo-3-(3-(piperidin-1-yl)propyl)-3,4-dihydroquinazolin-2-yl)ethyl)amino)pyrimidine-5-carbonitrile]
990 nM | ≥ 10000 nM | 25 nM | C[C@H](Nc1ncnc(N)c1C#N)c1nc2cccc(Cl)c2c(=O)n1CCN1CCCC1 [Compound 136, (S)-4-amino-6-((1-(5-chloro-4-oxo-3-(2-(pyrrolidin-1-yl)ethyl)-3,4-dihydroquinazolin-2-yl)ethyl)amino)pyrimidine-5-carbonitrile]
760 nM | ≥ 10000 nM | 27 nM | C[C@H](Nc1nc(N)nc(N)c1C#N)c1nc2cccc(Cl)c2c(=O)n1CCN1CCCC1 [Compound 137, (S)-2,4-diamino-6-((1-(5-chloro-4-oxo-3-(2-(pyrrolidin-1-yl)ethyl)-3,4-dihydroquinazolin-2-yl)ethyl)amino)pyrimidine-5-carbonitrile]
410 nM | 590 nM | 6 nM | C[C@H](Nc1nc(N)nc(N)c1C#N)c1nc2cccc(Cl)c2c(=O)n1CCc1ccn[nH]1 [Compound 140, (S)-4-((1-(3-(2-(1H-pyrazol-5-yl)ethyl)-5-chloro-4-oxo-3,4-dihydroquinazolin-2-yl)ethyl)amino)-2,6-diaminopyrimidine-5-carbonitrile]

The next lines start with the molecule.

SMILES | IC50 [1] | IC50 [2] | IC50 [3]
C[C@H](Nc1ncnc(N)c1C#N)c1nc2cccc(Cl)c2c(=O)n1CCCN1CCN(C)CC1 [Compound 135, (S)-4-amino-6-((1-(5-chloro-3-(3-(4-methylpiperazin-1-yl)propyl)-4-oxo-3,4-dihydroquinazolin-2-yl)ethyl)amino)pyrimidine-5-carbonitrile] | 640 nM | ≥ 10000 nM | 6 nM
C[C@H](Nc1ncnc(N)c1C#N)c1nc2cccc(Cl)c2c(=O)n1C[C@@H](O)CO [Compound 142] | 527 nM | ≥ 10000 nM | 87 nM
C[C@H](Nc1ncnc(N)c1C#N)c1nc2cccc(Cl)c2c(=O)n1C[C@H](O)CO [Compound 143] | 374 nM | 4240 nM | 34 nM
